The text below walks through data of ChEMBL document CHEMBL3259687, “Synthesis and identification of chiral aminomethylpiperidine carboxamides as inhibitor of collagen induced platelet activation” (Eur J Med Chem, 2014).

Activity calls are given as the source filed them. No cut-off for these calls is given here.

Usually inhibition stands for the drop in the measured response relative to a control, in per cent. As a reminder, the IC50 is the midpoint of a concentration-inhibition curve.

A short description of series [1]: Antiplatelet activity in human platelet-rich plasma assessed as inhibition of collagen-induced platelet aggregation at 30 uM treated for 5 mins prior to collagen challenge for 5 mins by turbidimetric method. In kind it is functional.
Series [2] has as its system Mus musculus. Description: Antithrombotic activity in mouse assessed as protection against collagen-epinephrine-induced pulmonary thromboembolism at 30 uM/kg, po administered 60 mins prior to thrombotic challenge. In kind it is functional.
In series [3] the test system is Mus musculus. The series is described as follows: Prolongation of bleeding time in mouse at 30 uM/kg, po administered as single dose by tail excision method. The class given is ADME, organism-based. The conditions noted are these: in vivo.
Series [4] can be described thus: (§1) Antiplatelet activity in human platelet-rich plasma assessed as inhibition of collagen-induced platelet aggregation treated for 5 mins prior to collagen challenge for 5 mins by turbidimetric method. The class given is functional, cell-free. The conditions noted are these: for IC50: Homo sapiens, Platelet, Plasma.
Series [5] concerns Platelet. Description: Antiplatelet activity in human platelet-rich plasma assessed as inhibition of ADP-induced platelet aggregation treated for 5 mins prior to ADP challenge for 5 mins by turbidimetric method. In kind it is functional, cell-free.
For series [6], the system named is Platelet. The series is described as follows: Antiplatelet activity in human platelet-rich plasma assessed as inhibition of TRAP-induced platelet aggregation treated for 5 mins prior to TRAP challenge for 5 mins by turbidimetric method. The class given is functional, cell-free.
The subject of series [7] is Platelet. Description: Antiplatelet activity in human platelet-rich plasma assessed as inhibition of ristocetin-induced platelet aggregation treated for 5 mins prior to ristocetin challenge for 5 mins by turbidimetric method. In kind it is functional, cell-free.
Series [8] is described as follows: Antiplatelet activity in human platelet-rich plasma assessed as inhibition of arachidonic acid-induced platelet aggregation treated for 5 mins prior to arachidonic acid challenge for 5 mins by turbidimetric method. The class given is functional, cell-free. To be noted: for IC50: Homo sapiens, Platelet, Plasma.
Series [9] in a line: (§2) Antiplatelet activity in human platelet-rich plasma assessed as inhibition of U46619-induced platelet aggregation treated for 5 mins prior to U46619 challenge for 5 mins by turbidimetric method. In kind it is functional, cell-free. To be noted: for IC50: Homo sapiens, Platelet, Plasma.
Series [10] is described as follows: Antiplatelet activity in human platelet-rich plasma assessed as inhibition of collagen-induced platelet aggregation at 10 uM treated for 5 mins prior to collagen challenge for 5 mins by turbidimetric method. The class given is functional.
Series [11] has as its system Platelet. Described as §1. In kind it is functional, cell-free.
In series [12] the test system is Platelet. The description is as §2. The class given is functional, cell-free.

With `CC(C)(C)OC(=O)NCC1CCN(C(=O)[C@@H]2CCC(=O)N2Cc2ccc(C#N)cc2)CC1`, the inhibition at 30 µM in [1] was found to be 34%. For the same molecule, the values for the Activity with Mus musculus [2] and in the series with Mus musculus [3] were 40% and 0%, respectively.
On to `Cc1ccc(CN2C(=O)OC[C@H]2C(=O)N2CCC[C@H](CNC(=O)OC(C)(C)C)C2)cc1`, for which the Activity in the series on Mus musculus [2] was determined as 20%; in the series with Mus musculus [3], 10%.
As to `Cc1ccc(CN2CSC[C@H]2C(=O)N2CCC[C@H](CNC(=O)OC(C)(C)C)C2)cc1`, the “inhibition (INH)” value in series [4] is given as 87%; in series [8], 93%; in series [9], 100%. Further, the IC50 was 3.3 µM in [4], 6 µM in [8] and 2.7 µM in series [9]. Also, the inhibition entry in the series with Platelet [5], with Platelet [6] and in the series with Platelet [7] was “inactive” in each case. For the same molecule, the values for the Activity in the series with Mus musculus [2] and with Mus musculus [3] were 60% and 72%, respectively.
Take `O=C(CNC(=O)OCc1ccccc1)NCC1CCCN(C(=O)[C@@H]2CCC(=O)N2Cc2ccccc2)C1` (mixture of isomers): the inhibition at 30 µM in [1] turned out to be 12%. Moreover, the Activity in the series on Mus musculus [2] is listed as 40%; in the series with Mus musculus [3] it was 13%.
For `CC(C)(C)OC(=O)NCC1CCN(C(=O)[C@@H]2CCC(=O)N2Cc2c(Cl)cccc2Cl)CC1`, in that order: 80%, 70% and 50%.
For the molecule `Cc1ccc(S(=O)(=O)NCC2CCCN(C(=O)[C@@H]3CCC(=O)N3Cc3ccccc3)C2)cc1` (mixture of isomers), the inhibition at 30 µM in series [1] came to 72%. For the same molecule, the Activity in the series with Mus musculus [2] is given as 25%; in the series with Mus musculus [3] it was 0%.
On to `CC(C)(C)OC(=O)NC[C@H]1CCCN(C(=O)[C@@H]2CCC(=O)N2Cc2cccc(C#N)c2)C1`, for which the inhibition at 10 µM in series [10] was 19%. Besides, the Activity with Mus musculus [2] is 20%.
The like results for `Cc1cccc(CN2C(=O)CC[C@H]2C(=O)N2CCC[C@H](CNC(=O)OC(C)(C)C)C2)c1` were, in that order, 13% and 70%.
As to `Cc1ccc(CN2CSC[C@H]2C(=O)N2CCC[C@@H](CNC(=O)OC(C)(C)C)C2)cc1`, the “inhibition (INH)” value in [4] stood at 74%; in [8] it was 25%; in [9] it was 96%. For the same molecule, the values for the IC50 in series [4], in series [8] and in series [9] were 8 µM, more than 100 µM and 4.7 µM, respectively. In addition, the inhibition result in the series on Platelet [11] and in the series with Platelet [12] was “Dose-dependent effect” each time. For the same molecule, the inhibition entry in the series with Platelet [5], in the series on Platelet [6] and in the series with Platelet [7] was “inactive” each time. Besides, the Activity with Mus musculus [2] and in the series on Mus musculus [3] was 50% throughout.
For the molecule `CC(C)(C)OC(=O)NC[C@H]1CCCN(C(=O)[C@@H]2CCC(=O)N2Cc2ccccc2)C1`, the inhibition at 10 µM in series [10] is 17%. For the same molecule, the Activity in the series with Mus musculus [2] was 50%.
Turning to `CC(C)(C)OC(=O)NCC1CCCN(C(=O)[C@@H]2CCC(=O)N2Cc2ccccc2Cl)C1` (mixture of isomers), the inhibition at 30 µM in [1] came to 15%. For the same molecule, the results for the Activity with Mus musculus [2] and in the series on Mus musculus [3] were 70% and 60%, respectively.
Regarding `Cc1ccc(CN2C(=O)CCC[C@H]2C(=O)N2CCC[C@H](CNC(=O)OC(C)(C)C)C2)cc1`, the inhibition at 10 µM in series [10] was 22%. Also, in the series with Mus musculus [2], the Activity is on record as 50%.
For `COc1cccc(CN2C(=O)CC[C@H]2C(=O)N2CCC[C@H](CNC(=O)OC(C)(C)C)C2)c1`, in that order: 6% and 22.3%.
For the molecule `Cc1ccc(CN2C(=O)OC[C@H]2C(=O)N2CCC[C@@H](CNC(=O)OC(C)(C)C)C2)cc1`, the Activity in the series on Mus musculus [2] is listed as 30%; in the series with Mus musculus [3] it was 54%.
Take `O=C([C@@H]1CCC(=O)N1Cc1ccccc1)N1CCN(c2ccccc2Cl)CC1`: the “inhibition (INH)” value in [4] worked out at 74%. Also, in the series on Mus musculus [2], the Activity amounted to 40%.
With `COc1ccccc1CN1C(=O)CC[C@H]1C(=O)N1CCC[C@@H](CNC(=O)OC(C)(C)C)C1`, in series [10], the inhibition at 10 µM was 32%. Moreover, the Activity in the series on Mus musculus [2] stood at 40%.
The like results for `Cc1ccc(CN2C(=O)CSC[C@H]2C(=O)N2CCCC(CNC(=O)OC(C)(C)C)C2)cc1` (single isomer, unassigned) were, in that order, 18% and 30%.
On to `O=C([C@@H]1CCC(=O)N1Cc1ccccc1)N1CCN(c2ccccc2F)CC1`, for which, in series [4], the “inhibition (INH)” value was 57%. The Activity in the series with Mus musculus [2] is recorded as 50%.
For the molecule `Cc1ccc(C(=O)N2CSC[C@H]2C(=O)N2CCC[C@H](CNC(=O)OC(C)(C)C)C2)cc1`, the Activity with Mus musculus [2] came to 40%; in the series on Mus musculus [3] it was 50%.
On to `COc1ccc(CN2C(=O)CC[C@H]2C(=O)N2CCC[C@H](CNC(=O)OC(C)(C)C)C2)cc1`, for which the inhibition at 10 µM in series [10] came to 25%. Further, the Activity with Mus musculus [2] was 20%.
Regarding `CC(C)(C)C(=O)NCC1CCCN(C(=O)[C@@H]2CCC(=O)N2Cc2ccccc2)C1` (mixture of isomers), the inhibition at 30 µM in [1] is 2.4%. Also, the values for the Activity in the series on Mus musculus [2] and in the series on Mus musculus [3] were 50% and 41%, respectively.
In the case of `CC(C)(C)OC(=O)NC[C@@H]1CCCN(C(=O)[C@@H]2CCC(=O)N2Cc2ccc(Cl)cc2)C1`, the inhibition at 10 µM in [10] worked out at 35%. Moreover, the Activity with Mus musculus [2] is 50%.
As to `CC(C)(C)OC(=O)NC[C@H]1CCCN(C(=O)[C@@H]2CCC(=O)N2Cc2ccccc2Br)C1`, in series [10], the inhibition at 10 µM came to 6%. In the series with Mus musculus [2], the Activity was 50%.
With `CC(C)(C)OC(=O)NCC1CCCN(C(=O)[C@@H]2CCC(=O)N2Cc2ccc(Br)cc2)C1` (mixture of isomers), in [1], the inhibition at 30 µM was determined as 66.4%. For the same molecule, the values for the Activity in the series with Mus musculus [2] and with Mus musculus [3] were 67% and 60%, respectively.
In the case of `Cc1ccc(C(=O)N2CSC[C@H]2C(=O)N2CCC[C@@H](CNC(=O)OC(C)(C)C)C2)cc1`, the figures for the Activity in the series with Mus musculus [2] and in the series with Mus musculus [3] were 10% and 8%, respectively.
As to `CC(C)(C)OC(=O)NCC1CCCN(C(=O)[C@@H]2CCC(=O)N2C/C=C/c2ccccc2)C1` (mixture of isomers), the inhibition at 30 µM in series [1] is 42%. The Activity with Mus musculus [2] is given as 30%; in the series with Mus musculus [3], 0%.
With `CC(C)(C)OC(=O)NC[C@@H]1CCCN(C(=O)[C@@H]2CCC(=O)N2Cc2ccc(Cl)c(Cl)c2)C1`, the inhibition at 10 µM in series [10] turned out to be 27%. For the same molecule, in the series with Mus musculus [2], the Activity amounted to 20%.
Turning to `O=C(NCC1CCN(C(=O)[C@@H]2CCC(=O)N2Cc2ccc(Br)cc2)CC1)OCc1ccccc1`, the inhibition at 30 µM in series [1] came to 11%. In addition, the figures for the Activity with Mus musculus [2] and with Mus musculus [3] were 70% and 25%, respectively.
As to `Cc1ccc(CN2C(=O)CCC[C@H]2C(=O)N2CCC[C@@H](CNC(=O)OC(C)(C)C)C2)cc1`, the inhibition at 10 µM in series [10] is 18%. For the same molecule, the Activity with Mus musculus [2] stood at 40%.
For `COc1ccccc1CN1C(=O)CC[C@H]1C(=O)N1CCC[C@H](CNC(=O)OC(C)(C)C)C1`, in that order: 22% and 50%.
The like results for `COc1ccc(CN2C(=O)CC[C@H]2C(=O)N2CCC[C@@H](CNC(=O)OC(C)(C)C)C2)cc1` were, in that order, 7% and 20%.
For `CC(C)(C)OC(=O)NC[C@H]1CCCN(C(=O)[C@@H]2CCC(=O)N2Cc2ccc(Br)cc2)C1`, in that order: 4% and 50%.
